What was measured:
lipoxygenase = test: Inhibition of lipoxygenase (liberation of leukotriene B4 in polymorphonuclear rat leukocytes, calcium ionophore, HPLC); format: cell-based; settings: LTB4 liberation in rat PMN
Method: (§1) The liberation of leukotriene B4 (LTB4) in polymorphonuclear rat leukocytes (PMN) after addition of substances and calcium ionophore was determined by means of reverse phase HPLC according to Sorgeat, P. et al, Proc. Nat. Acad. Sci. 76, 2148-2152 (1979) as a measure of the lipoxygenase inhibition. The in vivo activity of the compounds was determined using the mouse ear inflammation model according to Young, J. M. et al., J. of Investigative Dermatology 82, 367-371 (1984).

mouse ear inflammation = test: Mouse ear inflammation test; format: in vivo
Method: as §1

Compound | IC50 value, inhibition of lipoxygenase (lipoxygenase) | Inhibition of inflammation, % (mouse ear inflammation; 2 mg/ear topical) | Inhibition of inflammation, % (mouse ear inflammation; 100 mg/kg per os)
O=S(=O)(Nc1ccc(Oc2ccc3cccnc3c2)cc1)c1cccc(C(F)(F)F)c1 [Example 54, N-[4-(quinolin-7-yloxy)phenyl]-3-trifluoromethylbenzenesulphonamide] | 170 ng/mL | – | –
O=S(=O)(Nc1ccc(OCc2ccc3ccccc3n2)cc1)c1ccc(Cl)cc1 [Example 73, N-[4-(quinolin-2-yl-methyloxy)phenyl]-4-chlorobenzenesulphonamide] | 100 ng/mL | – | –
O=S(=O)(Nc1ccc(Oc2cccc3cccnc23)cc1)c1cccc(C(F)(F)F)c1 [Example 44, N-[4-(quinolin-8-yloxy)phenyl]-3-trifluoromethylbenzenesulphonamide] | – | – | 38%
Cc1ccnc2c(Oc3ccc(NS(=O)(=O)c4ccc(Cl)cc4)cc3)cccc12 [Example 58, N-[4-(4-methylquinolin-8-yloxy)phenyl]-4-chlorobenzenesulphonamide] | – | 58% | –
O=S(=O)(Nc1ccc(Oc2ccc3cccnc3c2)cc1)c1ccc(Cl)cc1 [Example 53, N-[4-(quinolin-7-yloxy)phenyl]-4-chlorobenzenesulphonamide] | 88 ng/mL | – | –
O=S(=O)(Nc1ccc(Oc2ccc3cccnc3c2)cc1)c1ccc(F)cc1 [Example 57, N-[4-(quinolin-7-yloxy)phenyl]-4-fluorobenzenesulphonamide] | 33 ng/mL | – | –

The next lines start with results.

IC50 value, inhibition of lipoxygenase (lipoxygenase) | Compound | Inhibition of inflammation, % (mouse ear inflammation; 2 mg/ear topical) | Inhibition of inflammation, % (mouse ear inflammation; 100 mg/kg per os)
57 ng/mL | CCCCS(=O)(=O)Nc1ccc(OCc2ccc3ccccc3n2)cc1 [Example 75, N-[4-(quinolin-2-yl-methyloxy)phenyl]butanesulphonamide] | 39% | 46%
74 ng/mL | CCCC(C)S(=O)(=O)Nc1ccc(OCc2ccc3ccccc3n2)cc1 (centres unmarked) [Example 78, N-[4-(quinolin-2-yl-methyloxy)phenyl]-1-methylbutanesulphonamide] | 65% | –
100 ng/mL | O=S(=O)(Nc1ccc(OCc2ccc3ccccc3n2)cc1)c1cccc(C(F)(F)F)c1 [Example 74, N-[4-(quinolin-2-yl-methyloxy)phenyl]-3-trifluoromethylbenzenesulphonamide] | – | –
46 ng/mL | O=S(=O)(CCCCl)Nc1ccc(OCc2ccc3ccccc3n2)cc1 [Example 76, N-[4-(quinolin-2-yl-methyloxy)phenyl]-3-chloropropanesulphonamide] | – | 37%

From patent US5070096A, “Quinolinoxy phenylsulphonamides” (Bayer Aktiengesellschaft, priority 1986, dated 1991)
